# Target: T1, HCMV polymerase (Human cytomegalovirus, UniProt P08546)
# T1 construct: made in house; host or cells: SF-9 insect cells infected with recombinant baculovirus
# Experiment: HCMV polymerase assay (scintillation proximity assay)
# Type: biochemical
# Conditions: percentage of inhibition at 25 μM concentration in CMV polymerase assay
# Outline: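 Baculovirus/SF-9-expressed HCMV polymerase in 5.4 mM HEPES pH 7.5, 11.7 mM KCl, 4.5 mM MgCl2, 0.36 mg/ml BSA, 90 nM 3H-dTTP, with or without 2 mM CHAPS. Started with 6 nM biotinylated poly(dA)-oligo(dT), 30 min at 25 or 37 °C, EDTA-stopped, read by streptavidin-SPA counting; % inhibition at 25 μM.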
# T1 sequence (P08546 whole entry): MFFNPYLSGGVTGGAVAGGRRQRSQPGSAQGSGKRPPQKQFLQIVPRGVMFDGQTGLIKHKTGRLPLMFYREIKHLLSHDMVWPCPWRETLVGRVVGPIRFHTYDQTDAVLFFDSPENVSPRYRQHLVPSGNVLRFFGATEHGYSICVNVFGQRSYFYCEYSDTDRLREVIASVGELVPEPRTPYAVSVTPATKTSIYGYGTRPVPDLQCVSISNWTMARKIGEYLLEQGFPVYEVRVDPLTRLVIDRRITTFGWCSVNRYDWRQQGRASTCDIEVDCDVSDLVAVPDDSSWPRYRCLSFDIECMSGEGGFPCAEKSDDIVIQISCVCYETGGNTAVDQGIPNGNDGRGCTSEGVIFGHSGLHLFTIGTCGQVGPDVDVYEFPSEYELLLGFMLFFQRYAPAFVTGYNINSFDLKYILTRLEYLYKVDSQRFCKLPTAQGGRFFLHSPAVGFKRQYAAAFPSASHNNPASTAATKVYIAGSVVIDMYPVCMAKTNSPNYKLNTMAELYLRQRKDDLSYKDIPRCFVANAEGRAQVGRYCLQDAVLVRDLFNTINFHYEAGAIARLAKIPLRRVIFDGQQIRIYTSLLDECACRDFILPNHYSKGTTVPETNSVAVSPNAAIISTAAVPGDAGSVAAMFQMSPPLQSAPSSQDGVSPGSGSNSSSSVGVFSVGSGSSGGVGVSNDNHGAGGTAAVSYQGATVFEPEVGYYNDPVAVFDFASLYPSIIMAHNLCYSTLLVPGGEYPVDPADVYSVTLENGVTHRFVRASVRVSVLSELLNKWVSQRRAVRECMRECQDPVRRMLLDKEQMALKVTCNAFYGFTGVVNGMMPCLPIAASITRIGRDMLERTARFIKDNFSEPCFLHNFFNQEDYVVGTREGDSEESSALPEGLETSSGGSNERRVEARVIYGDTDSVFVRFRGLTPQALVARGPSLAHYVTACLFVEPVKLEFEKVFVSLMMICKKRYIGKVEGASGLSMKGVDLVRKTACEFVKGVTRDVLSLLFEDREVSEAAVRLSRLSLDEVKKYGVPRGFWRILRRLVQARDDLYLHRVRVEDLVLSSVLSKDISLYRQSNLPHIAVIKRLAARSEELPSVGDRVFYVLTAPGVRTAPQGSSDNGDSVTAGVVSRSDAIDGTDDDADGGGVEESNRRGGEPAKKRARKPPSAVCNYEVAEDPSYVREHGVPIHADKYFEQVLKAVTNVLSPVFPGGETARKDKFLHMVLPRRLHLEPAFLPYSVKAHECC
inhibition at 25 µM [%],SMILES,% Inhib [%]
31.6,"O=C(Nc1nnc(NCCc2cccs2)s1)c1cccc([N+](=O)[O-])c1 [compound 337, 3-nitro-N-(5-{[2-(2-thienyl)ethyl]amino}-1,3,4-thiadiazol-2-yl)benzamide]",
31.6,"CC(C)(C)OC(=O)CCNc1nnc(NC(=O)c2c(Cl)cccc2Cl)s1 [compound 338, tert-butyl 3-({5-[(2,6-dichlorobenzoyl)amino]-1,3,4-thiadiazol-2-yl}amino)propanoate]",
31.5,"O=C(Nc1nnc(NCCNc2ccccc2)s1)c1ccc(I)cc1 [compound 339, N-{5-[(2-anilinoethyl)amino]-1,3,4-thiadiazol-2-yl}-4-iodobenzamide]",
31.5,"CC(C)(C)OC(=O)CCNc1nnc(NC(=O)c2ccc3c(c2)C(=O)OC3=O)s1 [compound 340, tert-butyl 3-[(5-{[(1,3-dioxo-1,3-dihydro-2-benzofuran-5-yl)carbonyl]amino}-1,3,4-thiadiazol-2-yl)amino]propanoate]",
31.3,"O=C(Nc1nnc(NCc2ccco2)s1)c1ccc(I)cc1 [compound 341, N-{5-[(2-furylmethyl)amino]-1,3,4-thiadiazol-2-yl}-4-iodobenzamide]",
31.2,"CCCCCCCCCCCNc1nnc(NC(=O)/C=C/c2ccccc2)s1 [compound 342, (E)-3-phenyl-N-[5-(undecylamino)-1,3,4-thiadiazol-2-yl]-2-propenamide]",
31.2,"O=C(Nc1nnc(NC2CCCc3ccccc32)s1)c1cc2ccccc2s1 (centres unmarked) [compound 343, N-[5-(1,2,3,4-tetrahydro-1-naphthalenylamino)-1,3,4-thiadiazol-2-yl]-1-benzothiophene-2-carboxamide]",
31.1,CCOC(=O)N1CCC(Nc2nnc(NC(=O)/C=C/c3ccccc3Cl)s2)CC1 [compound 344],
30.9,"N#Cc1ccc(C(=O)Nc2nnc(NCCc3ccccc3)s2)cc1 [compound 345, 4-cyano-N-[5-(phenethylamino)-1,3,4-thiadiazol-2-yl]benzamide]",
30.7,"O=C(CCCCCl)Nc1nnc(NCCc2c[nH]c3ccccc23)s1 [compound 346, 5-chloro-N-(5-{[2-(1H-indol-3-yl)ethyl]amino}-1,3,4-thiadiazol-2-yl)pentanamide]",
30.6,"O=C(Nc1nnc(NC2CCCc3ccccc32)s1)c1cccc([N+](=O)[O-])c1 (centres unmarked) [compound 347, 3-nitro-N-[5-(1,2,3,4-tetrahydro-1-naphthalenylamino)-1,3,4-thiadiazol-2-yl]benzamide]",
30.4,"COc1ccccc1C(=O)Nc1nnc(NCc2ccc(F)cc2)s1 [compound 348, N-{5-[(4-fluorobenzyl)amino]-1,3,4-thiadiazol-2-yl}-2-methoxybenzamide]",
30.3,"O=C(Nc1nnc(NCc2ccco2)s1)c1cc2ccccc2s1 [compound 349, N-{5-[(2-furylmethyl)amino]-1,3,4-thiadiazol-2-yl}-1-benzothiophene-2-carboxamide]",
30.3,"O=C(Nc1nnc(NCc2ccc(Cl)c(Cl)c2)s1)c1ccc([N+](=O)[O-])o1 [compound 350, N-{5-[(3,4-dichlorobenzyl)amino]-1,3,4-thiadiazol-2-yl}-5-nitro-2-furamide]",
30.3,"O=C(Nc1nnc(NCCc2c[nH]c3ccccc23)s1)c1ccc(Br)cc1 [compound 351, 4-bromo-N-(5-{[2-(1H-indol-3-yl)ethyl]amino}-1,3,4-thiadiazol-2-yl)benzamide]",
30.2,"O=C(/C=C/c1ccccc1Cl)Nc1nnc(NCc2ccncc2)s1 [compound 352, (E)-3-(2-chlorophenyl)-N-[5-[(4-pyridinylmethyl)amino]-1,3,4-thiadiazol-2-yl}-2-propenamide]",
30.2,"O=C(/C=C/c1ccccc1Cl)Nc1nnc(NC2CC2)s1 [compound 353, (E)-3-(2-chlorophenyl)-N-[5-(cyclopropylamino)-1,3,4-thiadiazol-2-yl]-2-propenamide]",
29.9,"O=C(CCCCCl)Nc1nnc(NCCc2ccccc2)s1 [compound 354, 5-chloro-N-[5-(phenethylamino)-1,3,4-thiadiazol-2-yl]pentanamide]",
29.8,"O=C(Nc1nnc(NC2CCc3ccccc32)s1)c1cccc([N+](=O)[O-])c1 (centres unmarked) [compound 355, N-[5-(2,3-dihydro-1H-inden-1-ylamino)-1,3,4-thiadiazol-2-yl]-3-nitrobenzamide]",
29.6,"Cc1ccc(C(=O)Nc2nnc(NCCCCc3ccccc3)s2)cc1 [compound 356, 4-methyl-N-{5-[(4-phenylbutyl)amino]-1,3,4-thiadiazol-2-yl}benzamide]",
29.4,"O=C(/C=C/c1ccccc1Cl)Nc1nnc(NCCCCc2ccccc2)s1 [compound 357, (E)-3-(2-chlorophenyl)-N-{5-[(4-phenylbutyl)amino]-1,3,4-thiadiazol-2-yl}-2-propenamide]",

inhibition at 25 µM [%],SMILES,% Inhib [%]
29.3,"CC(C)c1cc(C(C)C)c(C(=O)Nc2nnc(NCc3ccc4c(c3)OCO4)s2)c(C(C)C)c1 [compound 358, N-{5-[(1,3-benzodioxol-5-ylmethyl)amino]-1,3,4-thiadiazol-2-yl}-2,4,6-triisopropylbenzamide]",
29.1,"Cc1ccc(C(=O)Nc2nnc(NCCc3ccccc3)s2)cc1 [compound 359, 4-methyl-N-[5-(phenethylamino)-1,3,4-thiadiazol-2-yl]benzamide]",
29,"O=C(/C=C/c1ccccc1)Nc1nnc(NCC2CCCCC2)s1 [compound 360, (E)-N-{5-[(cyclohexylmethyl)amino]-1,3,4-thiadiazol-2-yl}-3-phenyl-2-propenamide]",
28.8,"O=C(Nc1nnc(NCc2ccc(F)cc2)s1)c1cc2ccccc2s1 [compound 361, N-{5-[(4-fluorobenzyl)amino]-1,3,4-thiadiazol-2-yl}-1-benzothiophene-2-carboxamide]",
28.8,"O=C(Nc1nnc(NCc2cccc3ccccc23)s1)c1cc(F)cc(F)c1 [compound 362, 3,5-difluoro-N-{5-[(1-naphthylmethyl)amino]-1,3,4-thiadiazol-2-yl}benzamide]",
28.8,"O=C(Nc1nnc(NCc2cccc3ccccc23)s1)c1ccc(F)cc1F [compound 363, 2,4-difluoro-N-{5-[(1-naphthylmethyl)amino]-1,3,4-thiadiazol-2-yl}benzamide]",
28.7,"N#Cc1ccc(C(=O)Nc2nnc(NCC3CCCCC3)s2)cc1 [compound 364, 4-cyano-N-{5-[(cyclohexylmethyl)amino]-1,3,4-thiadiazol-2-yl}benzamide]",
28.7,"N#Cc1ccc(C(=O)Nc2nnc(NCc3cccs3)s2)cc1 [compound 365, 4-cyano-N-{5-[(2-thienylmethyl)amino]-1,3,4-thiadiazol-2-yl}benzamide]",
28.6,"COc1ccccc1C(=O)Nc1nnc(NCCc2ccc(S(N)(=O)=O)cc2)s1 [compound 366, N-(5-{[4-(aminosulfonyl)phenethyl]amino}-1,3,4-thiadiazol-2-yl)-2-methoxybenzamide]",
28.6,"O=C(Nc1nnc(NC2CCN(Cc3ccccc3)CC2)s1)c1ccc(I)cc1 [compound 367, N-{5-[(1-benzyl-4-piperidinyl)amino]-1,3,4-thiadiazol-2-yl}-4-iodobenzamide]",
28.5,"CCOC(=O)N1CCC(Nc2nnc(NC(=O)c3cc4ccccc4s3)s2)CC1 [compound 368, ethyl 4-({5-[(1-benzothiophen-2-ylcarbonyl)amino]-1,3,4-thiadiazol-2-yl}amino)tetrahydro-1(2H)-pyridinecarboxylate]",
28.3,"O=C(Nc1nnc(NC2CCCCCC2)s1)c1c(Cl)cccc1Cl [compound 369, 2,6-dichloro-N-[5-(cycloheptylamino)-1,3,4-thiadiazol-2-yl]benzamide]",
28.3,"O=C(Nc1nnc(NCCN2CCCC2)s1)c1c(Cl)cccc1Cl [compound 370, 2,6-dichloro-N-(5-{[2-(1-pyrrolidinyl)ethyl]amino}-1,3,4-thiadiazol-2-yl)benzamide]",
,"O=C(Nc1nnc(NCCCN2CCCC2=O)s1)c1ccc(S(=O)(=O)F)cc1 [compound 371, 4-{[(5-{[3-(2-oxo-1-pyrrolidinyl)propyl]amino}-1,3,4-thiadiazol-2-yl)amino]carbonyl}benzenesulfonyl fluoride]",28.1
28.1,"O=C(Nc1nnc(NCc2ccc3c(c2)OCO3)s1)c1cc(F)cc(F)c1 [compound 372, N-{5-[(1,3-benzodioxol-5-ylmethyl)amino]-1,3,4-thiadiazol-2-yl}-3,5-difluorobenzamide]",
28.1,"O=C(Nc1nnc(NCCCCc2ccccc2)s1)c1cc(F)cc(F)c1 [compound 373, 3,5-difluoro-N-{5-[(4-phenylbutyl)amino]-1,3,4-thiadiazol-2-yl}benzamide]",
28.1,"O=C(/C=C/c1ccccc1Cl)Nc1nnc(NC2CCCc3ccccc32)s1 (centres unmarked) [compound 374, (E)-3-(2-chlorophenyl)-N-[5-(1,2,3,4-tetrahydro-1-naphthalenylamino)-1,3,4-thiadiazol-2-yl]-2-propenamide]",
27.9,"CCCCCCCCCCCNc1nnc(NC(=O)c2ccc(Cl)c(Cl)c2)s1 [compound 375, 3,4-dichloro-N-[5-(undecylamino)-1,3,4-thiadiazol-2-yl]benzamide]",
27.9,"O=C(Nc1nnc(NCCC(c2ccccc2)c2ccccc2)s1)c1ccc(C(F)(F)F)cc1 [compound 376, N-{5-[(3,3-diphenylpropyl)amino]-1,3,4-thiadiazol-2-yl}-4-(trifluoromethyl)benzamide]",
27.8,"O=C(Nc1nnc(NCCc2ccccc2)s1)c1c(Cl)cccc1Cl [compound 377, 2,6-dichloro-N-[5-(phenethylamino)-1,3,4-thiadiazol-2-yl]benzamide]",

# — patent publication US6150385A, “1,3,4-thiadiazoles useful for the treatment of CMV infections” (Pharmacia & Upjohn Company, priority 1999, dated 2000)
